Assay results published in patent US4582827A, “Pesticidal diphenylaziridines” (priority 1983, dated 1986).

Test system: tobacco hornworm (Manduca sexta) larvae
Assay: Tobacco hornworm growth and developmental responses to feeding on diets containing the compounds
Format: in vivo
Conditions: for Total No. of Adults: all tests began with 15 larvae; for mean number of eggs: 4 day old females
Protocol: The compounds produced and described in Example 1 were then tested for pesticidal activity against the tobacco hornworm (Manduca sexta). The screening procedure for these tests began with the larval stage and continued through the pupal and adult stages and finally evaluated egg production. The studies thus permitted the evaluation of the effects of the compounds over several subsequent developmental stages in the total life cycle of the insect, giving estimates of acute toxicity (insecticidalor larvicidal activity) as well as prolonged or delayed effects on development (growth regulation) and reproduction (chemosterilization). The latter are of special importance in conjunction with the integrated pest management approach to insect control.
The test compounds were incorporated into the artificial diet of tobacco hornworm larvae and their subsequent growth and developmental responses were monitored using the following parameters: larval mortality including determination of LD50 values, rate of larval development and weight gain, percent pupation, pupal weight and degree of deformities, percent adult emergence and measures of reproductive capacity such as the number of developed ooctyes, fecundity and fertility. The protocol for the screening tests has been developed over a number of years by Dahlman et al., Comp. Biochem. Physiol. 51A, 33, (1975); Comp. Biochem. Physiol., 52A, 105 (1975); Ent. Exp. et Appl., 22, 123 (1977); Palumbo and D. L. Dahlman, J. Econ. Entomol. 71, 674 (1978); D. L. Dahlman, Ent. Exp. et Appl., 24, 327 (1978).
Each treatment used 15 newly ecdysed fifth-instar larvae. Death of larvae within a few hours to several days of initial exposure was considered to be acute toxicity. However, the compounds may reduce the maximum size attained by larvae and/or may retard growth so that larvae require additional time to attain their maximum size. Developmental parameters subsequent to the feeding stage also may be affected. […] Mortality may occur in the pupal stage or emerging adults may have wrinkled wings or other deformities. The number of eggs produced by treated females may be reduced and/or unfertile. Although acute toxicity is desirable in the control of any insect, the delayed effects which result in poor survival and reduced reproductive capacity are significant factors in the long-range program of pest management systems.
Continuous cultures of M. sexta are maintained according to the procedures of Yamamoto, J. Econ. Entomol., 62, p. 1427 (1969). Ingredients of the diet formulation include sugar, casein, wheat germ oil, cholesterol, salt mixture, yeast, vitamins, antioxidants and fungal inhibitors, such as ascorbic acid, sorbic acid, formaldehyde and methyl-p-benzoate. All are incorporated into a liquid agar base which, when poured into holding pans, solidifies to form an adequate substrate upon which the insect larvae feed. Nearly any test material can be uniformly incorporated into such a diet. Thus, exposure to experimental compounds can be evaluated during all or any part of the larval stage. In addition, chronic or long-term effects in subsequent life stages can also be monitored.
The results from these studies, in which the 1,2-diphenylaziridines of Example 1 were incorporated singly into the diet of M. sexta at a concentration of 5 mM are presented in the following Table I.

| Structure (SMILES) | % Adult Emergence (5 mM in diet) [%] | % Malformed Adults (5 mM in diet) [%] | % Pupation (5 mM in diet) [%] | Days to Max Wt (5 mM in diet) | Max Larval Wt (5 mM in diet) | Mean No. of Eggs (5 mM in diet) | No. of female Adults (5 mM in diet) | Total No. of Adults (5 mM in diet) | pupal mortality (5 mM in diet) | wrinkled or crumpled wings of moths (5 mM in diet) | pupal mortality (summary of Tables I and II) | effects on tobacco hornworm development (summary of Tables I and II) | reduction in the maximum weight of hornworm larvae (5 mM in diet) | feeding time required to attain reduced maximum weight (5 mM in diet) | larval mortality (5 mM in diet) | percent adult emergence (5 mM in diet) | percent pupation (5 mM in diet) | mean number of eggs (5 mM in diet) |
| --- | --- | --- | --- | --- | --- | --- | --- | --- | --- | --- | --- | --- | --- | --- | --- | --- | --- | --- |
| CCc1ccc(N2CC2c2ccccc2Cl)cc1 (stereo not shown) [Compound 16] | 80 | 20 | 87 | 5.5 ± .2 days | 7.48 ± .31 g | 44 | 4 | 12 |  |  |  |  |  |  |  |  |  |  |
| O=[N+]([O-])c1ccccc1C1CN1c1ccc(Cl)c(Cl)c1 (stereo not shown) [Compound 2] | 47 | 71 | 93 | 6.2 ± .1 days | 8.58 ± .31 g | 83 ± 29 | 5 | 7 | significant pupal mortality | observed in significant numbers of moths | caused pupal mortality |  |  |  |  |  |  |  |
| O=[N+]([O-])c1cccc(C2CN2c2ccccc2)c1 (stereo not shown) [Compound 4] | 100 | 7 | 100 | 5.1 ± .1 days | 9.01 ± .17 g | 67 ± 16 | 9 | 15 |  |  |  | had no effect |  |  |  |  |  |  |
| Clc1ccc(C2CN2c2ccc(Br)cc2)cc1 (stereo not shown) [Compound 9] | 86 | 15 | 93 | 5.0 ± .0 days | 6.46 ± .23 g | 74 ± 14 | 7 | 13 |  |  |  |  | 30-50% |  |  |  |  |  |
| c1ccc(C2CN2c2ccccc2)cc1 (stereo not shown) [Compound 7, 1,2-diphenylaziridine] | 80 | 0 | 100 | 6.7 ± .2 days | 9.29 ± .17 g | 79 ± 19 | 10 | 12 |  |  |  | had no effect |  |  |  |  |  |  |
| Brc1ccc(N2CC2c2ccccc2)cc1 (stereo not shown) [Compound 6] | 47 | 27 | 53 | 9.2 ± .5 days | 4.83 ± .42 g | 7 ± 5 | 5 | 7 |  | observed in significant numbers of moths |  | reduction in maximum larval weight, percent pupation, and mean number of eggs, and an increase in malformed adults | 30-50% | extended the feeding time | significant larval mortality | significantly lower than controls | a reduction in percent pupation | significantly reduced the mean number of eggs |
| Clc1ccccc1C1CN1c1ccccc1 (stereo not shown) [Compound 5] | 40 | 17 | 40 | 7.3 ± 1.4 days | 5.42 ± .42 g | 14 ± 17 | 3 | 6 |  |  |  | reduction in maximum larval weight, percent pupation, and mean number of eggs, and an increase in malformed adults | 30-50% | extended the feeding time | significant larval mortality | significantly lower than controls | a reduction in percent pupation | significantly reduced the mean number of eggs |
| Clc1cccc(C2CN2c2ccc(Br)cc2)c1 (stereo not shown) [Compound 8] | 53 | 50 | 60 | 7.8 ± .6 days | 4.84 ± .19 g | 1 ± 0 | 4 | 8 |  | observed in significant numbers of moths |  | reduction in maximum larval weight, percent pupation, and mean number of eggs, and an increase in malformed adults | 30-50% | extended the feeding time | significant larval mortality | significantly lower than controls | a reduction in percent pupation | significantly reduced the mean number of eggs |
| Clc1cccc(N2CC2c2ccccc2Cl)c1 (stereo not shown) [Compound 12] | 47 | 57 | 60 | 7.6 ± .8 days | 5.96 ± .40 g | 8 ± 11 | 2 | 7 |  | observed in significant numbers of moths |  | reduction in maximum larval weight, percent pupation, and mean number of eggs, and an increase in malformed adults | 30-50% | extended the feeding time | significant larval mortality | significantly lower than controls | a reduction in percent pupation | significantly reduced the mean number of eggs |
| O=[N+]([O-])c1cccc(N2CC2c2ccccc2[N+](=O)[O-])c1 (stereo not shown) [Compound 3] | 80 | 8 | 100 | 5.2 ± .1 days | 9.21 ± .24 g | 97 ± 14 | 9 | 12 |  |  |  | had no effect |  |  |  |  |  |  |
